Assay results as given in PubChem BioAssay AID1259407 (Chemical Carcinogenesis Research Information System (CCRIS), 2018).
Active and inactive are the calls of the source. No rule for the calls is given here.

Tested on: CCRIS mutagenicity, Ames/micronucleus/aberration tests
Test: CCRIS mutagenicity studies
[1] = Test System: AMES SALMONELLA TYPHIMURIUM, Strain/Indicator: TA1535, Metabolic Activation: NONE, Method: PREINCUBATION

SMILES: Clc1c(Cl)c(Cl)c2c(c1Cl)Oc1c(Cl)c(Cl)c(Cl)c(Cl)c1O2
- mutagenic call (Test System: AMES SALMONELLA TYPHIMURIUM, Strain/Indicator: TA97, Metabolic Activation: HAMSTER, LIVER, S-9, AROCLOR 1254 (10 OR 30%), Method: PREINCUBATION): inactive; negative
- mutagenic call (Test System: AMES SALMONELLA TYPHIMURIUM, Strain/Indicator: TA97, Metabolic Activation: NONE, Method: PREINCUBATION): inactive; negative
- mutagenic call (Test System: AMES SALMONELLA TYPHIMURIUM, Strain/Indicator: TA97, Metabolic Activation: RAT, LIVER, S-9, AROCLOR 1254 (10 OR 30%), Method: PREINCUBATION): inactive; negative
- mutagenic call (Test System: AMES SALMONELLA TYPHIMURIUM, Strain/Indicator: TA98, Metabolic Activation: HAMSTER, LIVER, S-9, AROCLOR 1254 (10 OR 30%), Method: PREINCUBATION): inactive; negative
- mutagenic call (Test System: AMES SALMONELLA TYPHIMURIUM, Strain/Indicator: TA98, Metabolic Activation: NONE, Method: PREINCUBATION): inactive; negative
- mutagenic call (Test System: AMES SALMONELLA TYPHIMURIUM, Strain/Indicator: TA98, Metabolic Activation: RAT, LIVER, S-9, AROCLOR 1254 (10 OR 30%), Method: PREINCUBATION): inactive; negative
- mutagenic call (Test System: AMES SALMONELLA TYPHIMURIUM, Strain/Indicator: TA100, Metabolic Activation: HAMSTER, LIVER, S-9, AROCLOR 1254 (10 OR 30%), Method: PREINCUBATION): inactive; negative
- mutagenic call (Test System: AMES SALMONELLA TYPHIMURIUM, Strain/Indicator: TA100, Metabolic Activation: NONE, Method: PREINCUBATION): inactive; negative
- mutagenic call (Test System: AMES SALMONELLA TYPHIMURIUM, Strain/Indicator: TA100, Metabolic Activation: RAT, LIVER, S-9, AROCLOR 1254 (10 OR 30%), Method: PREINCUBATION): inactive; negative
- mutagenic call (Test System: AMES SALMONELLA TYPHIMURIUM, Strain/Indicator: TA1535, Metabolic Activation: HAMSTER, LIVER, S-9, AROCLOR 1254 (10 OR 30%), Method: PREINCUBATION): inactive; negative
- mutagenic call [1]: inactive; negative
- mutagenic call (Test System: AMES SALMONELLA TYPHIMURIUM, Strain/Indicator: TA1535, Metabolic Activation: RAT, LIVER, S-9, AROCLOR 1254 (10 OR 30%), Method: PREINCUBATION): inactive; negative

SMILES: Cc1c2c3ccccc3nc-2n(C)c2c(C)cccc12
- mutagenic call (Test System: AMES SALMONELLA TYPHIMURIUM, Strain/Indicator: TA97, Metabolic Activation: RAT, LIVER, S-9, AROCLOR 1254, Method: STANDARD PLATE): active; positive

SMILES: Nc1cccc2cc3c(nc12)CCCC3
- mutagenic call (Test System: AMES SALMONELLA TYPHIMURIUM, Strain/Indicator: TA97A, Metabolic Activation: NONE, Method: STANDARD PLATE): active; positive
- mutagenic call (Test System: AMES SALMONELLA TYPHIMURIUM, Strain/Indicator: TA97A, Metabolic Activation: RAT, LIVER, S-9, AROCLOR 1254, Method: STANDARD PLATE): active; positive

SMILES: NN
- mutagenic call (End Point: IN VITRO CHROMOSOMAL ABERRATIONS, Test System: CHL CELLS, Metabolic Activation: NONE): active; positive (structural changes)
- mutagenic call (End Point: IN VITRO CHROMOSOMAL ABERRATIONS, Test System: CHL CELLS, Metabolic Activation: RAT, LIVER, S-9, SODIUM PHENOBARBITAL AND 5,6-BENZOFLAVONE): active; positive (structural changes)
- mutagenic call (Test System: AMES SALMONELLA TYPHIMURIUM, Strain/Indicator: G46, Metabolic Activation: HAMSTER, LIVER, HOMOGENATE, Method: PREINCUBATION): active; positive
- mutagenic call (Test System: AMES SALMONELLA TYPHIMURIUM, Strain/Indicator: G46, Metabolic Activation: MOUSE, LIVER, HOMOGENATE, Method: PREINCUBATION): active; positive
- mutagenic call (Test System: AMES SALMONELLA TYPHIMURIUM, Strain/Indicator: G46, Metabolic Activation: RAT, LIVER, HOMOGENATE, Method: PREINCUBATION): active; positive
- mutagenic call (Test System: AMES SALMONELLA TYPHIMURIUM, Strain/Indicator: TA98, Metabolic Activation: RAT LIVER S-9, PHENOBARBITAL AND BETA-NAPHTHOFLAVONE, Method: PREINCUBATION): inactive; negative
- mutagenic call (Test System: AMES SALMONELLA TYPHIMURIUM, Strain/Indicator: TA100, Metabolic Activation: RAT LIVER S-9, PHENOBARBITAL AND BETA-NAPHTHOFLAVONE, Method: PREINCUBATION): inactive; negative
- mutagenic call (Test System: AMES SALMONELLA TYPHIMURIUM, Strain/Indicator: TA102, Metabolic Activation: NONE, Method: PREINCUBATION): active; positive
- mutagenic call (Test System: AMES SALMONELLA TYPHIMURIUM, Strain/Indicator: TA102, Metabolic Activation: NONE, Method: STANDARD PLATE): inactive; negative
- mutagenic call (Test System: AMES SALMONELLA TYPHIMURIUM, Strain/Indicator: TA1535, Metabolic Activation: HAMSTER, LIVER, HOMOGENATE, Method: PREINCUBATION): active; positive
- mutagenic call (Test System: AMES SALMONELLA TYPHIMURIUM, Strain/Indicator: TA1535, Metabolic Activation: MOUSE, LIVER, HOMOGENATE, Method: PREINCUBATION): active; positive
- mutagenic call [1]: active; positive
- mutagenic call (Test System: AMES SALMONELLA TYPHIMURIUM, Strain/Indicator: TA1535, Metabolic Activation: RAT LIVER S-9, PHENOBARBITAL AND BETA-NAPHTHOFLAVONE, Method: PREINCUBATION): active; positive
- mutagenic call (Test System: AMES SALMONELLA TYPHIMURIUM, Strain/Indicator: TA1535, Metabolic Activation: RAT, LIVER, HOMOGENATE, Method: PREINCUBATION): active; positive
- mutagenic call (Test System: AMES SALMONELLA TYPHIMURIUM, Strain/Indicator: TA1537, Metabolic Activation: NONE, Method: PREINCUBATION): inactive; negative
- mutagenic call (Test System: AMES SALMONELLA TYPHIMURIUM, Strain/Indicator: TA1537, Metabolic Activation: RAT LIVER S-9, PHENOBARBITAL AND BETA-NAPHTHOFLAVONE, Method: PREINCUBATION): inactive; negative
- mutagenic call (Test System: AMES SALMONELLA TYPHIMURIUM, Strain/Indicator: TA2638, Metabolic Activation: NONE, Method: STANDARD PLATE): inactive; negative
- mutagenic call (Test System: E. COLI, Strain/Indicator: WP2 (PKM101), Metabolic Activation: NONE, Method: STANDARD PLATE): active; positive
- mutagenic call (Test System: E. COLI, Strain/Indicator: WP2 UVRA (PKM101), Metabolic Activation: NONE, Method: STANDARD PLATE): active; positive
- mutagenic call (Test System: E. COLI, Strain/Indicator: WP2 UVRA, Metabolic Activation: NONE, Method: PREINCUBATION): active; positive
- mutagenic call (Test System: E. COLI, Strain/Indicator: WP2 UVRA, Metabolic Activation: RAT, LIVER, MICROSOMES, PHENOBARBITAL, Method: PREINCUBATION): active; positive
- mutagenic call (Test System: E.COLI, Strain/Indicator: WP2UVRA, Metabolic Activation: NONE, Method: PREINCUBATION): active; positive
- mutagenic call (Test System: E.COLI, Strain/Indicator: WP2UVRA, Metabolic Activation: RAT LIVER S-9, PHENOBARBITAL AND BETA-NAPHTHOFLAVONE, Method: PREINCUBATION): active; positive
